Source: article PMC6069857, “Effects of novel HDAC inhibitors on urothelial carcinoma cells” (Clinical Epigenetics, 2018)

What was measured:
[1] = system: VM-CUB1 and UM-UC-3 cells; assay: Nuclear morphology analysis (DAPI, rhodamine phalloidin); assay type: cell-based, human; conditions: 19i 2 μM, 24 or 48 h
Description: As previously described, after fixation with 4% formaldehyde, cells were permeabilized (0.3% Triton X100 in PBS, 10 min, RT), blocked (1% BSA in PBS, 30 min, RT), and subsequently incubated for 1 h at RT with 14 nM Rhodamine Phalloidin in blocking solution. Following counter-staining of nuclei with 1 μg/ml DAPI (4′,6-diamidino-2-phenylindole), cells were mounted with fluorescence mounting medium (DAKO, Glostrup, Denmark). For each treatment option and sample, 500 cells were counted and the amount of mitosis and micronuclei was quantified using a Nikon Eclipse 400 microscope (Nikon, Tokyo, Japan).

[2] = target: HDAC2 (Homo sapiens, UniProt Q92769); parameters: purchased Reaction Biology Corp. (Malvern, PA); conditions: previously reported; given for HDAC1/2 together; cited from earlier work
Sequence of HDAC2 (Q92769 whole entry): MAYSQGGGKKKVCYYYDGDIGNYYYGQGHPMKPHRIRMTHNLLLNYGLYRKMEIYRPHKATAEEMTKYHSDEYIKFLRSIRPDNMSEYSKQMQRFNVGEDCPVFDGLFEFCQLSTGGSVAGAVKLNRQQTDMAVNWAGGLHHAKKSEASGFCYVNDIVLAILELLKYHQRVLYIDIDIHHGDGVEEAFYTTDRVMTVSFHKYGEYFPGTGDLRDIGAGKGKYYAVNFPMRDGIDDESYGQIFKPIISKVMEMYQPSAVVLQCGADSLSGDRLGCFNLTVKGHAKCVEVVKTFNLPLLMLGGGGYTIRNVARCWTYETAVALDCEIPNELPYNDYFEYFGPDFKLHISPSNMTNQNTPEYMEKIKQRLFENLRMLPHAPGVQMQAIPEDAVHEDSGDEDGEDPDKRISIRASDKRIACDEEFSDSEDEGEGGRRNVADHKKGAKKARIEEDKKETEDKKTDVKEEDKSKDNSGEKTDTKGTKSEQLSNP

[3] = system: UCCs VM-CUB1, UM-UC-3, and 639-V; conditions: 19i 2 μM, 24 and 48 h
Description: Caspase activity after inhibitor treatment was quantified by the Caspase-Glo 3/7 assay and normalized to cell viability measured by CellTiter-Glo® reagent (Promega, Mannheim, Germany) as previously described. Briefly, following exposure to inhibitors, defined aliquots of trypsinized cells were transferred to 96-well plates for viability and caspase-3/7 measurements according to the manufacturer’s protocol.

[4] = system: VM-CUB1; assay: MTT viability assay (CC50); assay type: cell-based, human; conditions: VM-CUB1, MTT, 72 h of incubation
Description: (§1) Further experiments were performed in VM-CUB1 and UM-UC-3 cells overexpressing HDAC4 (see below). Standard UCCs were obtained from the DSMZ (Braunschweig, Germany) and Dr. H.B. Grossmann HB (Houston, USA). For comparison, we investigated the spontaneously immortalized normal human bladder cell line HBLAK (provided by CELLnTEC, Bern, Switzerland) and the immortalized human embryonic kidney cell line HEK-293 (provided by Dr. V. Kolb-Bachofen, Duesseldorf, Germany). Cells were cultured and treated in DMEM GlutaMAX-I (Gibco, Darmstadt, Germany; UCCs and HEK-293) supplemented with 10% fetal calf serum (Biochrom, Berlin, Germany), except for HBLAK cultured in CnT-Prime Epithelial Culture Medium (CELLnTEC, Bern, Switzerland; HBLAK), at 37 °C and 5% CO2. STR (short tandem repeat) profiling via DNA fingerprint analysis was performed for all cell lines. Primary cultures of normal urothelial cells (UP) were established from healthy ureters removed during tumor nephrectomy and cultured as described. These cultures were used with informed consent of the patients and approval by the Ethics Committee of the Medical Faculty of the Heinrich-Heine-University, study number 1788. All inhibitors were dissolved in DMSO and stored as 10 mM stocks. […] The pan-HDACi inhibitor SAHA previously studied in detail was used for comparison. Solvent control cells were treated with equal amounts of DMSO.
(§2) For the determination of cellular mean cytotoxic concentration (CC50), UCCs, non-malignant control cells, and HDAC4-overexpressing clones were seeded in a 96-well format and treated once with a range of defined concentrations of the HDAC inhibitors. After 72 h, viability was quantified by NAD(P)H-dependent 3-(4,5-dimethylthiazol-2-yl)-2,5-diphenyltetrazolium bromide dye reduction assay (MTT, Sigma Aldrich, St. Louis, MO). CC50 values were estimated from three independent experiments by non-linear regression analysis (four-parameter logistic equation) using Prism 4.0 (Graph Pad) or Origin 8.0 (Origin Lab, Northhampton, GB). For time-dependent proliferation experiments, viability of untreated or inhibitor-treated cells was measured after 24, 48, and 72 h.

[5] = system: UM-UC-3; assay: MTT viability assay (CC50); assay type: cell-based, human; conditions: UM-UC-3, MTT, 72 h of incubation
Description: as §1, §2

[6] = system: HEK-293; assay: MTT viability assay (CC50); assay type: cell-based, human; conditions: HEK-293, MTT, 72 h of incubation
Description: as §1, §2

[7] = system: 639-V; assay: MTT viability assay (CC50); assay type: cell-based, human; conditions: 72 h of incubation
Description: as §1, §2

[8] = system: HBLAK; assay: MTT viability assay (CC50); assay type: cell-based, human; conditions: 72 h of incubation
Description: as §1, §2

[9] = target: T1, HDAC5 (Homo sapiens, UniProt Q9UQL6); conditions: older assays, given for HDAC4/5 together; cited from earlier work
T1 construct: purchased Reaction Biology Corp. (Malvern, PA)
T1 sequence (Q9UQL6 whole entry): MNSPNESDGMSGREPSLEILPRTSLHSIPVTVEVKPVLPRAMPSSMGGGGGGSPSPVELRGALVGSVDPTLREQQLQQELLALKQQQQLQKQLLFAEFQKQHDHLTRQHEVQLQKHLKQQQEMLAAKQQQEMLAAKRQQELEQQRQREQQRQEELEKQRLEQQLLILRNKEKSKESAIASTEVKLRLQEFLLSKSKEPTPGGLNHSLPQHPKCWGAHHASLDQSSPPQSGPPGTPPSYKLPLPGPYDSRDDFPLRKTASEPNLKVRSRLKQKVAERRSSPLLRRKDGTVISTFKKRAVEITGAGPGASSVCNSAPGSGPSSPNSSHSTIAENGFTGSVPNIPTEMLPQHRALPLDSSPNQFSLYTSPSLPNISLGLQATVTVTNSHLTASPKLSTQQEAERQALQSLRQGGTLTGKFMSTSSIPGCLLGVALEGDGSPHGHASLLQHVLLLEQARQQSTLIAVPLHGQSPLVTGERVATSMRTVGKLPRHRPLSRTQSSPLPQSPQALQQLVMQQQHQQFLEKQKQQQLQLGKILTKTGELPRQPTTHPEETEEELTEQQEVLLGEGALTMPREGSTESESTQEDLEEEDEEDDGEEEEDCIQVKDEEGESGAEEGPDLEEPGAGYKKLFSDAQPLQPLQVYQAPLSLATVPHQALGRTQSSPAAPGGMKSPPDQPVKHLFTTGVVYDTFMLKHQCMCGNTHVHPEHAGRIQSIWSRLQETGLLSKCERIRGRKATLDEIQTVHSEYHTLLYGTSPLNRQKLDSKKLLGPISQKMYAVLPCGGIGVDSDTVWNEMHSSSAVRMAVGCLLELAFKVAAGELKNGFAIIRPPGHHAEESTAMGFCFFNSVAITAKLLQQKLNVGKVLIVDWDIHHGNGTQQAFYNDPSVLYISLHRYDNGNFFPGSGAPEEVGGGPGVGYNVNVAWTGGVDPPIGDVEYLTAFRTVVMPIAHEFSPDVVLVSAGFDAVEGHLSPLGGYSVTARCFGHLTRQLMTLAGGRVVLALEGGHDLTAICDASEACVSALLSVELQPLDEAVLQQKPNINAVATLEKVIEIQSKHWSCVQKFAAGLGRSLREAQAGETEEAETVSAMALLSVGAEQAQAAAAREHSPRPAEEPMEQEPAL

[10] = system: UC cells; assay: Clonogenicity assay with Giemsa staining; assay type: cell-based, human; conditions: 2 μM 19i for 48 h, replated
Description: Then, depending on the cell line, 500–1000 cells were seeded in 6-cm plates, and 10 to 15 days later, colonies were washed with PBS, fixed in methanol, and stained with Giemsa (Merck Millipore, Darmstadt, Germany).

[11] = target: HDAC3 (Homo sapiens, UniProt O15379); assay: In vitro fluorescence-based HDAC inhibition assay (Reaction Biology); conditions: read-out: IC50 HDAC3; experiment performed once
Sequence of HDAC3 (O15379 whole entry): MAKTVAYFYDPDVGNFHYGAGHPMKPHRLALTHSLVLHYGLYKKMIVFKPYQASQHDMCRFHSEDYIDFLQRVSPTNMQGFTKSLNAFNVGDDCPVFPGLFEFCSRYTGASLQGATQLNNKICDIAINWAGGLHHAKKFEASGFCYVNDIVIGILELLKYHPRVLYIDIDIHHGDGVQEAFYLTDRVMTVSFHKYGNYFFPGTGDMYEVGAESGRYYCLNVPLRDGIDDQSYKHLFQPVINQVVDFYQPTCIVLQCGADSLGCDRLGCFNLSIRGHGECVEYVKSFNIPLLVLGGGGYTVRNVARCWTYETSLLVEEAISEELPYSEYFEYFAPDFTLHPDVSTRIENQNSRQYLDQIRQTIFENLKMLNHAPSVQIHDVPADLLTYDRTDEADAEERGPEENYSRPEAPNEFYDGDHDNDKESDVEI
Sequence of HDAC3 (Q9Y618 395-489 partner limits assumed): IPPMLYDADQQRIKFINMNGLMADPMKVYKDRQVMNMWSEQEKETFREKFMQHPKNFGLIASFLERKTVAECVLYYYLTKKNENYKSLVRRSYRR

[12] = target: T2, HDAC4 (Homo sapiens, UniProt P56524); conditions: older assays, given for HDAC4/5 together; cited from earlier work
T2 construct: purchased Reaction Biology Corp. (Malvern, PA)

[13] = target: HDAC11 (Homo sapiens, UniProt Q96DB2); assay: In vitro fluorescence-based HDAC inhibition assay (Reaction Biology); conditions: read-out: IC50 HDAC11; experiment performed once
Sequence of HDAC11 (Q96DB2 whole entry): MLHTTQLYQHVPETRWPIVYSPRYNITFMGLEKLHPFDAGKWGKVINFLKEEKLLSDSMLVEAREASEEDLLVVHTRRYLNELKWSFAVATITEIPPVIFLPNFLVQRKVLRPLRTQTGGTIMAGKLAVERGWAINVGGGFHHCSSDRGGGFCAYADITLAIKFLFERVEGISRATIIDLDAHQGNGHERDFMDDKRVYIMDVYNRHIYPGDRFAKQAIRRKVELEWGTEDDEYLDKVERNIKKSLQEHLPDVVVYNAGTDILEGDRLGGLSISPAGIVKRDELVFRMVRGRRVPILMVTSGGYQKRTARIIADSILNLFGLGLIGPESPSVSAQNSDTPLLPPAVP

[14] = target: HDAC6 (Homo sapiens, UniProt Q9UBN7); assay: as above; conditions: read-out: IC50 HDAC6; experiment performed once
Sequence of HDAC6 (Q9UBN7 whole entry): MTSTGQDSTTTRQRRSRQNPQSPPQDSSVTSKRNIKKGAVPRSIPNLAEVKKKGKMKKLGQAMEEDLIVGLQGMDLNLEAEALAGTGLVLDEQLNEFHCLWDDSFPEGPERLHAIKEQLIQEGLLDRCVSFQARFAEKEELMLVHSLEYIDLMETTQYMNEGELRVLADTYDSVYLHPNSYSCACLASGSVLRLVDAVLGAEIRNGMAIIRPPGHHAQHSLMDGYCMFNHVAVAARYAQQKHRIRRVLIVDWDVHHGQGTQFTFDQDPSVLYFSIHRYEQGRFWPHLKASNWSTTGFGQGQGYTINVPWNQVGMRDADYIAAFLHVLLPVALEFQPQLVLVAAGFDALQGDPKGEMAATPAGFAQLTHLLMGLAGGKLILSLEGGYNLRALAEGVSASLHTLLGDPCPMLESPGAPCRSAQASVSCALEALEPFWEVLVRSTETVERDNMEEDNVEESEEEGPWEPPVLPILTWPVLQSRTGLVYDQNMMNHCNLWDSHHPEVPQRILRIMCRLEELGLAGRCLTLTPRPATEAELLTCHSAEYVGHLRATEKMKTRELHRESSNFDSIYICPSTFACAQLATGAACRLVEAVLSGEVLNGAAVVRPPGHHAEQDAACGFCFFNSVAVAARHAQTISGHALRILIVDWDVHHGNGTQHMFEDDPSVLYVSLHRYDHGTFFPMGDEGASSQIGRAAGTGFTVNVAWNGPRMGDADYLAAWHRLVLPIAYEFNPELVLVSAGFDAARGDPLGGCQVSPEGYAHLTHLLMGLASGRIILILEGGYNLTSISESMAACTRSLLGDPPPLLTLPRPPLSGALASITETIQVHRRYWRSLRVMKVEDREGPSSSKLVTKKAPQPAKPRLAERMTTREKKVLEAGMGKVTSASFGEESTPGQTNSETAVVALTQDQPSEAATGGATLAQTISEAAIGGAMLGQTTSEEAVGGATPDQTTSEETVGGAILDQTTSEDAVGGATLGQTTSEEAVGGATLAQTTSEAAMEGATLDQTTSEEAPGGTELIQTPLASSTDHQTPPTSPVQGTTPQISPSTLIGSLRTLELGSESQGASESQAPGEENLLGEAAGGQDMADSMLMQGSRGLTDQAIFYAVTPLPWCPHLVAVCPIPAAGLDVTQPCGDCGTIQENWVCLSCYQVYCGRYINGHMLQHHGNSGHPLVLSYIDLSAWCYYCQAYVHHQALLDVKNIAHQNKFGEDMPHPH

[15] = target: HDAC10 (Homo sapiens, UniProt Q969S8); assay: as above; conditions: read-out: IC50 HDAC10; experiment performed once
Sequence of HDAC10 (Q969S8 whole entry): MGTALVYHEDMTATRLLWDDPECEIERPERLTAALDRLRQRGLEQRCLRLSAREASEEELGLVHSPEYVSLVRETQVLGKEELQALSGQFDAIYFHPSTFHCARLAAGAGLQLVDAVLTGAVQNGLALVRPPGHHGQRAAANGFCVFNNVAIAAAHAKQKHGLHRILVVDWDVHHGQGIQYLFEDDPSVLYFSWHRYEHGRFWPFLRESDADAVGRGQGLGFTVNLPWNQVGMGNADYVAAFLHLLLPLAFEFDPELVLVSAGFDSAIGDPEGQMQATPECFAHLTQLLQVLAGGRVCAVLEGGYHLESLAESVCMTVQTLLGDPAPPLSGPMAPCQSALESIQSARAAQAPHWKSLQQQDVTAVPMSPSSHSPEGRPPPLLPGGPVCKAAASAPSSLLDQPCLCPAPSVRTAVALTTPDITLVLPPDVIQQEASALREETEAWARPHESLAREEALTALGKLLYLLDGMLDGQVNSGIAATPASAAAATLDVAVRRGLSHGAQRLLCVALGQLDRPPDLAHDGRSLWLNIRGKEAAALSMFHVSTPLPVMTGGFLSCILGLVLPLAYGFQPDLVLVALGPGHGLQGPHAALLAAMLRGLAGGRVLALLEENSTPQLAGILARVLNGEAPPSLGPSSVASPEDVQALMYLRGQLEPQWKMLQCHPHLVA

[16] = system: UC cell lines (VM-CUB1, UM-UC-3, 639-V); assay: MTT viability assay, UC cell lines taken together; assay type: cell-based, human; conditions: across VM-CUB1, UM-UC-3, 639-V; MTT, 72 h
Description: Further experiments were performed in VM-CUB1 and UM-UC-3 cells overexpressing HDAC4 (see below). Standard UCCs were obtained from the DSMZ (Braunschweig, Germany) and Dr. H.B. Grossmann HB (Houston, USA). For comparison, we investigated the spontaneously immortalized normal human bladder cell line HBLAK (provided by CELLnTEC, Bern, Switzerland) and the immortalized human embryonic kidney cell line HEK-293 (provided by Dr. V. Kolb-Bachofen, Duesseldorf, Germany). Cells were cultured and treated in DMEM GlutaMAX-I (Gibco, Darmstadt, Germany; UCCs and HEK-293) supplemented with 10% fetal calf serum (Biochrom, Berlin, Germany), except for HBLAK cultured in CnT-Prime Epithelial Culture Medium (CELLnTEC, Bern, Switzerland; HBLAK), at 37 °C and 5% CO2. […]
as §2, with “CC50 values were estimated from three independent experiments by non-linear regression analysis (four-parameter logistic equation) using Prism 4.0 (Graph Pad) or Origin 8.0 (Origin Lab, Northhampton, GB).” left out

Compound: Cc1cc(C)cc(C(=O)NOCCCCCC(=O)NO)c1 [19i]
- number of mitoses [1]: decreased sharply
- percentage of cells with micronuclei [1]: increased
- in vitro IC50 HDAC2 [2]: sub-micromolar
- caspase 3/7 activity [3]: significant, albeit moderately increased
- CC50 [4]: 970 nM
- CC50 [5]: 820 nM
- CC50 [6]: 610 nM
- CC50 [7]: 1030 nM
- CC50 [8]: > 5000 nM
- in vitro IC50 HDAC5 [9]: nanomolar range
- clonogenic potential [10]: impaired the clonogenic potential
- IC50 [11]: 236 nM
- in vitro IC50 HDAC4 [12]: nanomolar range
- IC50 [13]: 109000 nM
- IC50 [14]: 32 nM
- IC50 [15]: 491 nM
- CC50 [16]: ~1000 nM
